Source: patent US20230114728A1 (Venatorx Pharmaceuticals, Inc., priority 2019, published 2023)
In brackets after ≈: the same amount, converted by molar mass.

Legend:
Assay in all cases: Broth microdilution MIC in CAMHB
Assay type in all cases: cell-based
[1] = test system: P. aeruginosa (ΔmexAB-oprM); details: Pseudomonas aeruginosa, read-out: Minimum Inhibitory Concentration, P. aeruginosa ΔmexAB-OprM
Procedure, shortened: (§1)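 MIC, read by eye, is the lowest compound concentration giving no bacterial growth after 16-20 h at 37° C. Test compounds are serially diluted 2-fold in CAMHB and seeded with 2-8×10^5 CFU/mL of bacteria taken from a 3-5 h shaking culture, following CLSI methods.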

[2] = test system: A. baumannii ATCC 19606; details: Acinetobacter baumannii, ATCC19606; MHB; read-out: Minimum Inhibitory Concentration, A. baumannii ATCC 19606
Procedure, shortened: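 Colonies from cation-adjusted Mueller Hinton agar are grown in broth (3-5 h, 37° C), adjusted by OD600, and added at 2-8×10^5 CFU/mL to 2-fold compound dilutions. After 16-20 h at 37° C, the lowest concentration without growth is taken as MIC.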

[3] = test system: E. coli ATCC 25922; details: Escherichia coli, ATCC25922; E. coli ATCC 25922; MHB; read-out: Minimum Inhibitory Concentration, E. coli 25922
Procedure, shortened: as §1

[4] = test system: E. coli AG100A; details: Escherichia coli, read-out: Minimum Inhibitory Concentration, E. coli AG100A
Procedure, shortened: as §1

[5] = test system: E. coli 901C; details: Escherichia coli; E. coli 901C (hyper-permeable); MHB; read-out: Minimum Inhibitory Concentration, E. coli 901C
Procedure, shortened: as §1

[6] = test system: K. pneumoniae UMM producing SHV-5 and KPC-2; details: Klebsiella pneumoniae, read-out: Minimum Inhibitory Concentration, K. pneumoniae UMM
Procedure, shortened: as §1

[7] = test system: P. aeruginosa ATCC 27853; details: Pseudomonas aeruginosa, ATCC27853; MHB; read-out: Minimum Inhibitory Concentration, P. aeruginosa ATCC 27853
Procedure, shortened: as §1

[8] = test system: E. coli AG100; details: Escherichia coli; E. coli AG100 (wild-type parent); MHB; read-out: Minimum Inhibitory Concentration, E. coli AG100
Procedure, shortened: as §1

[9] = test system: K. pneumoniae 848844 producing SHV-11 and KPC-2; details: Klebsiella pneumoniae, read-out: Minimum Inhibitory Concentration, K. pneumoniae 848844
Procedure, shortened: as §1

[10] = test system: K. pneumoniae SI-117 producing VIM-1; details: Klebsiella pneumoniae, read-out: Minimum Inhibitory Concentration, K. pneumoniae SI-117
Procedure, shortened: as §1

[11] = test system: P. aeruginosa ATCC 35151; details: Pseudomonas aeruginosa, ATCC35151; MHB; hyper-permeable strain; read-out: Minimum Inhibitory Concentration, P. aeruginosa ATCC 35151
Procedure, shortened: as §1

[12] = test system: E. coli D22; details: Escherichia coli; E. coli D22 (hyper-permeable); MHB; read-out: Minimum Inhibitory Concentration, E. coli D22
Procedure, shortened: as §1

Row | Compound | MIC [1] [µg/mL] | MIC [2] [µg/mL] | MIC [3] [µg/mL] | MIC [4] [µg/mL] | MIC [5] [µg/mL] | MIC [6] [µg/mL] | MIC [7] [µg/mL] | MIC [8] [µg/mL] | MIC [9] [µg/mL] | MIC [10] [µg/mL] | MIC [11] [µg/mL] | MIC [12] [µg/mL]
1 | CCN1CCN(C(=O)N[C@H](C(=O)N[C@H]2Cc3cccc(C(=O)O)c3OB2O)c2cc(F)c(C(=O)O)cc2Cl)C(=O)C1=O (single isomer, unassigned) [Example 149] | > 128 | > 128 | > 128 | 32 to 64 (≈ 52.9 to 106 µM) | 0.5 to 1 (≈ 0.827 to 1.65 µM) | > 128 | > 128 | > 128 | > 128 | > 128 | 2 to 4 (≈ 3.31 to 6.61 µM) | 8 to 16 (≈ 13.2 to 26.5 µM)
2 | CCN1CCN(C(=O)N[C@@H](C(=O)N[C@H]2Cc3cccc(C(=O)O)c3OB2O)c2ccc(C(=O)O)cc2Cl)C(=O)C1=O (single isomer, unassigned) [Example 151] | 8 to 16 (≈ 13.6 to 27.3 µM) | > 128 | > 128 | 8 to 16 (≈ 13.6 to 27.3 µM) | < 0.25 | > 128 | > 128 | 32 to 64 (≈ 54.5 to 109 µM) | > 128 | > 128 | 0.5 to 1 (≈ 0.852 to 1.7 µM) | 2 to 4 (≈ 3.41 to 6.82 µM)
3 | CCN1CCN(C(=O)N[C@H](C(=O)N[C@H]2Cc3cccc(C(=O)O)c3OB2O)c2ccc(C(=O)O)cc2Cl)C(=O)C1=O (single isomer, unassigned) [Example 152] | 32 to 64 (≈ 54.5 to 109 µM) | > 128 | > 128 | 32 to 64 (≈ 54.5 to 109 µM) | 0.5 to 1 (≈ 0.852 to 1.7 µM) | > 128 | > 128 | > 128 | > 128 | > 128 | 0.5 to 1 (≈ 0.852 to 1.7 µM) | 8 to 16 (≈ 13.6 to 27.3 µM)
4 | CCN1CCN(C(=O)N[C@H](C(=O)N[C@H]2Cc3cccc(C(=O)O)c3OB2O)c2ccc(C(=O)O)c(Cl)c2)C(=O)C1=O (single isomer, unassigned) [Example 155] | 8 to 16 (≈ 13.6 to 27.3 µM) | > 128 | > 128 | 8 to 16 (≈ 13.6 to 27.3 µM) | < 0.25 | > 128 | > 128 | 32 to 64 (≈ 54.5 to 109 µM) | > 128 | > 128 | 0.5 to 1 (≈ 0.852 to 1.7 µM) | 2 to 4 (≈ 3.41 to 6.82 µM)
5 | NCCN1CCN(C(=O)N[C@H](C(=O)N[C@H]2Cc3cccc(C(=O)O)c3OB2O)c2cc(F)c(O)c(F)c2)C(=O)C1=O (single isomer, unassigned) [Example 158] | 32 to 64 (≈ 55.6 to 111 µM) | > 128 | > 128 | 8 to 16 (≈ 13.9 to 27.8 µM) | 2 to 4 (≈ 3.48 to 6.95 µM) | > 128 | > 128 | > 128 | > 128 | > 128 | 0.5 to 1 (≈ 0.869 to 1.74 µM) | 8 to 16 (≈ 13.9 to 27.8 µM)
6 | NCCN1CCN(C(=O)N[C@@H](C(=O)N[C@H]2Cc3cccc(C(=O)O)c3OB2O)c2cc(F)c(O)c(F)c2)C(=O)C1=O (single isomer, unassigned) [Example 159] | 2 to 4 (≈ 3.48 to 6.95 µM) | > 128 | 8 to 16 (≈ 13.9 to 27.8 µM) | 2 to 4 (≈ 3.48 to 6.95 µM) | 0.5 to 1 (≈ 0.869 to 1.74 µM) | 8 to 16 (≈ 13.9 to 27.8 µM) | 32 to 64 (≈ 55.6 to 111 µM) | 8 to 16 (≈ 13.9 to 27.8 µM) | 32 to 64 (≈ 55.6 to 111 µM) | 32 to 64 (≈ 55.6 to 111 µM) | < 0.25 | 2 to 4 (≈ 3.48 to 6.95 µM)
7 | NCCN1CCN(C(=O)N[C@H](C(=O)N[C@H]2Cc3cccc(C(=O)O)c3OB2O)c2cc(Cl)c(O)c(Cl)c2)C(=O)C1=O (single isomer, unassigned) [Example 165] | 8 to 16 (≈ 13.2 to 26.3 µM) | > 128 | > 128 | 8 to 16 (≈ 13.2 to 26.3 µM) | 2 to 4 (≈ 3.29 to 6.58 µM) | > 128 | > 128 | > 128 | > 128 | > 128 | 0.5 to 1 (≈ 0.822 to 1.64 µM) | 32 to 64 (≈ 52.6 to 105 µM)
8 | NCCN1CCN(C(=O)N[C@@H](C(=O)N[C@H]2Cc3cccc(C(=O)O)c3OB2O)c2cc(Cl)c(O)c(Cl)c2)C(=O)C1=O (single isomer, unassigned) [Example 166] | 2 to 4 (≈ 3.29 to 6.58 µM) | > 128 | 8 to 16 (≈ 13.2 to 26.3 µM) | 0.5 to 1 (≈ 0.822 to 1.64 µM) | < 0.25 | 32 to 64 (≈ 52.6 to 105 µM) | 8 to 16 (≈ 13.2 to 26.3 µM) | 8 to 16 (≈ 13.2 to 26.3 µM) | 32 to 64 (≈ 52.6 to 105 µM) | 32 to 64 (≈ 52.6 to 105 µM) | < 0.25 | 2 to 4 (≈ 3.29 to 6.58 µM)
9 | NCCN1CCN(C(=O)N[C@H](C(=O)N[C@H]2Cc3cccc(C(=O)O)c3OB2O)c2cc(F)c(O)c(F)c2F)C(=O)C1=O (single isomer, unassigned) [Example 167] | 8 to 16 (≈ 13.5 to 27 µM) | > 128 | 32 to 64 (≈ 53.9 to 108 µM) | 8 to 16 (≈ 13.5 to 27 µM) | 2 to 4 (≈ 3.37 to 6.74 µM) | 32 to 64 (≈ 53.9 to 108 µM) | > 128 | 32 to 64 (≈ 53.9 to 108 µM) | > 128 | > 128 | 0.5 to 1 (≈ 0.843 to 1.69 µM) | 8 to 16 (≈ 13.5 to 27 µM)
